Data as given in ChEMBL document CHEMBL4483862, “Open-source discovery of chemical leads for next-generation chemoprotective antimalarials” (2018).

Test system: Plasmodium berghei
Assay: Luciferase/luciferin-expressing antifolate-resistant parasites were used to infect a culture of HepG2 cells that were pre-incubated with compounds. Infected hepatocytes emit light due to the luciferase reaction. Assay results are presented as the percent inhibition of light emission compared to control. […]
Assay type: functional
Settings: sporozoite; for IC90: read-out: LUCIFERASE INFECTION ASSAY - IC90

SMILES	IC90 [µM]	also measured
COCCCNC1=NN=C(c2cc(C)n(-c3ccccc3F)c2C)CS1	9.7	IC50 (HEPG2TOX_HILL_SLOPE 3.65, HEPG2TOX_R_SQUARED 0.669, PBLUC_HILL_SLOPE 1.05, PBLUC_R_SQUARED 0.653, read-out: LUCIFERASE INFECTION ASSAY - IC50): 1.2 µM
COc1cc(/C=C2\COC/C(=C\c3ccc(O)c(OC)c3)C2=O)ccc1O	> 8.96	IC50 (HEPG2TOX_HILL_SLOPE 3.66, HEPG2TOX_R_SQUARED 0.976, PBLUC_HILL_SLOPE 1.71, PBLUC_R_SQUARED 0.466, read-out: LUCIFERASE INFECTION ASSAY - IC50): > 8.96 µM
O=C(c1cnc2ccc3ccccc3c2c1)c1cc(F)ccc1O	> 10	IC50 (HEPG2TOX_HILL_SLOPE 3.61, HEPG2TOX_R_SQUARED 0.979, PBLUC_HILL_SLOPE 3.48, PBLUC_R_SQUARED 0.782, read-out: LUCIFERASE INFECTION ASSAY - IC50): 5.41 µM
CCc1ccc(NC(=O)C[n+]2c3n(c4c(F)c(F)ccc42)CCCCC3)cc1	9.39	IC50 (HEPG2TOX_HILL_SLOPE 3.71, HEPG2TOX_R_SQUARED 0.507, PBLUC_HILL_SLOPE 2.96, PBLUC_R_SQUARED 0.697, read-out: LUCIFERASE INFECTION ASSAY - IC50): 4.47 µM
CN1/C(=C\C(=O)C[n+]2cccc(Br)c2)C(C)(C)c2ccccc21	> 10	IC50 (HEPG2TOX_HILL_SLOPE 3.72, HEPG2TOX_R_SQUARED 0.897, PBLUC_HILL_SLOPE 2.59, PBLUC_R_SQUARED 0.674, read-out: LUCIFERASE INFECTION ASSAY - IC50): 4.52 µM
CC(C(=O)Nc1cccnc1)c1ccc2c(c1)[nH]c1ccc(Cl)cc12 (configuration not stated)	> 9.43	IC50 (HEPG2TOX_HILL_SLOPE 3.6, HEPG2TOX_R_SQUARED 0.842, PBLUC_HILL_SLOPE 14.2, PBLUC_R_SQUARED 0.432, read-out: LUCIFERASE INFECTION ASSAY - IC50): 8.79 µM
O=C(Nc1nonc1-c1cccs1)c1sc2ccccc2c1Cl	3.36	IC50 (HEPG2TOX_HILL_SLOPE 3.76, HEPG2TOX_R_SQUARED 0.735, PBLUC_HILL_SLOPE 21.7, PBLUC_R_SQUARED 0.795, read-out: LUCIFERASE INFECTION ASSAY - IC50): 3.04 µM
COc1ccc(-c2cnc3cnc(-c4ccc(O)cc4)cn23)cc1	> 10.4	IC50 (HEPG2TOX_HILL_SLOPE 3.68, HEPG2TOX_R_SQUARED 0.904, PBLUC_HILL_SLOPE 3.01, PBLUC_R_SQUARED 0.439, read-out: LUCIFERASE INFECTION ASSAY - IC50): 5.92 µM
O=C(NCc1cn(-c2ccccc2)nc1-c1ccc(Cl)s1)c1ccccc1C(F)(F)F	> 10	IC50 (HEPG2TOX_HILL_SLOPE 3.63, HEPG2TOX_R_SQUARED 0.948, PBLUC_HILL_SLOPE 1.32, PBLUC_R_SQUARED 0.654, read-out: LUCIFERASE INFECTION ASSAY - IC50): 2.44 µM
O=C(Nc1cc(C(F)(F)F)cc(C(F)(F)F)c1)Nc1sccc1Cl	2.93	IC50 (HEPG2TOX_HILL_SLOPE 3.73, HEPG2TOX_R_SQUARED 0.682, PBLUC_HILL_SLOPE 3.61, PBLUC_R_SQUARED 0.656, read-out: LUCIFERASE INFECTION ASSAY - IC50): 1.59 µM
O=S(=O)(Nc1cc(-c2ccc(Cl)cc2)nn1-c1ccc(I)cc1)c1cccc(F)c1	2.83	IC50 (HEPG2TOX_HILL_SLOPE 3.73, HEPG2TOX_R_SQUARED 0.889, PBLUC_HILL_SLOPE 8.27, PBLUC_R_SQUARED 0.455, read-out: LUCIFERASE INFECTION ASSAY - IC50): 2.17 µM
CN(C)c1ccc(C(c2ccc(OC(F)F)cc2)c2ccc(N(C)C)cc2)cc1	6.27	IC50 (HEPG2TOX_HILL_SLOPE 3.6, HEPG2TOX_R_SQUARED 0.971, PBLUC_HILL_SLOPE 3.21, PBLUC_R_SQUARED 0.781, read-out: LUCIFERASE INFECTION ASSAY - IC50): 3.16 µM
O=C(/C=C/c1cc([N+](=O)[O-])ccc1Cl)c1ccc(N2CCOCC2)c(F)c1	> 10	IC50 (HEPG2TOX_HILL_SLOPE 3.72, HEPG2TOX_R_SQUARED 0.763, PBLUC_HILL_SLOPE 12.8, PBLUC_R_SQUARED 0.291, read-out: LUCIFERASE INFECTION ASSAY - IC50): 8.87 µM
NC(=O)c1cccc(-c2ccc3ncc(-c4cccnc4)n3n2)c1	5.41	IC50 (HEPG2TOX_HILL_SLOPE 3.58, HEPG2TOX_R_SQUARED 0.988, PBLUC_HILL_SLOPE 1.15, PBLUC_R_SQUARED 0.587, read-out: LUCIFERASE INFECTION ASSAY - IC50): 0.804 µM
CN(c1ccccc1)c1ccc(CN2CCC3(CC2)C(=O)N(CCc2ccccc2)C(=O)N3C)cc1	3.1	IC50 (HEPG2TOX_HILL_SLOPE 3.73, HEPG2TOX_R_SQUARED 0.979, PBLUC_HILL_SLOPE 9.4, PBLUC_R_SQUARED 0.597, read-out: LUCIFERASE INFECTION ASSAY - IC50): 2.46 µM
CCOC(=O)c1c(S(=O)(=O)Nc2ccc(OC(F)(F)F)cc2)c(-c2ccccc2)n(-c2ccccc2)c1C	> 6.06	IC50 (HEPG2TOX_HILL_SLOPE 3.6, HEPG2TOX_R_SQUARED 0.938, PBLUC_HILL_SLOPE 3.83, PBLUC_R_SQUARED 0.0999, read-out: LUCIFERASE INFECTION ASSAY - IC50): 3.44 µM

SMILES	IC90 [µM]	also measured
Fc1cccc(-c2cnc3cnc(-c4ccncc4)cn23)c1	> 11.4	IC50 (HEPG2TOX_HILL_SLOPE 3.65, HEPG2TOX_R_SQUARED 0.679, PBLUC_HILL_SLOPE 2.42, PBLUC_R_SQUARED 0.708, read-out: LUCIFERASE INFECTION ASSAY - IC50): 5.64 µM
COc1cccc(CN2CCN3C=C(C(=O)Nc4ccc(C(C)C)cc4)OC3=NC2=O)c1	9.3	IC50 (HEPG2TOX_HILL_SLOPE 3.72, HEPG2TOX_R_SQUARED 0.984, PBLUC_HILL_SLOPE 3.98, PBLUC_R_SQUARED 0.662, read-out: LUCIFERASE INFECTION ASSAY - IC50): 5.35 µM
COc1ncccc1C(=O)NNC(=O)c1nc(-c2ccccc2)n(-c2ccccc2)n1	3.43	IC50 (HEPG2TOX_HILL_SLOPE 3.74, HEPG2TOX_R_SQUARED 0.853, PBLUC_HILL_SLOPE 83.7, PBLUC_R_SQUARED 0.266, read-out: LUCIFERASE INFECTION ASSAY - IC50): 3.34 µM
Cc1[nH]c2ccccc2c1C(=O)NCC1(c2ccccc2)CCC1	> 10	IC50 (HEPG2TOX_HILL_SLOPE 3.6, HEPG2TOX_R_SQUARED 0.416, PBLUC_HILL_SLOPE 3.04, PBLUC_R_SQUARED 0.598, read-out: LUCIFERASE INFECTION ASSAY - IC50): 7.33 µM
CCOc1cc2cc(C(=O)c3cc(C)ccc3O)cnc2cc1OC	9.38	IC50 (HEPG2TOX_HILL_SLOPE 3.65, HEPG2TOX_R_SQUARED 0.956, PBLUC_HILL_SLOPE 5.3, PBLUC_R_SQUARED 0.515, read-out: LUCIFERASE INFECTION ASSAY - IC50): 6.19 µM
COC(=O)c1cc(C#N)c(S(C)(=O)=O)s1	> 13.5	IC50 (HEPG2TOX_HILL_SLOPE 3.75, HEPG2TOX_R_SQUARED 0.937, PBLUC_HILL_SLOPE 11, PBLUC_R_SQUARED 0.132, read-out: LUCIFERASE INFECTION ASSAY - IC50): 12.1 µM
O=C(NC1CCN(Cc2ccccc2)CC1)N1CCN(Cc2ccc(Br)s2)CC1	4.35	IC50 (HEPG2TOX_HILL_SLOPE 3.62, HEPG2TOX_R_SQUARED 0.356, PBLUC_HILL_SLOPE 12.1, PBLUC_R_SQUARED 0.388, read-out: LUCIFERASE INFECTION ASSAY - IC50): 3.62 µM
O=C(N/N=C/c1cc(Br)ccc1O)c1ccccc1Oc1ccccc1	7.69	IC50 (HEPG2TOX_HILL_SLOPE 3.72, HEPG2TOX_R_SQUARED 0.537, PBLUC_HILL_SLOPE 21.6, PBLUC_R_SQUARED 0.145, read-out: LUCIFERASE INFECTION ASSAY - IC50): 6.95 µM
CCCNC(=O)c1c(NC(=O)c2cccc(C#N)c2)nc2ccc(C)cn12	> 9.13	IC50 (HEPG2TOX_HILL_SLOPE 3.59, HEPG2TOX_R_SQUARED 0.259, PBLUC_HILL_SLOPE 11, PBLUC_R_SQUARED 0.773, read-out: LUCIFERASE INFECTION ASSAY - IC50): 8.46 µM
CC(C)(C)c1ccc(CSCCNC2=CC(=O)CC(c3ccc4c(c3)OCO4)C2)cc1 (configuration not stated)	> 7.54	IC50 (HEPG2TOX_HILL_SLOPE 3.72, HEPG2TOX_R_SQUARED 0.93, PBLUC_HILL_SLOPE 2.67, PBLUC_R_SQUARED 0.216, read-out: LUCIFERASE INFECTION ASSAY - IC50): 3.87 µM
O=C(Nc1cccc(S(=O)(=O)NC2CC2)c1)c1cc(-c2ccccc2)nn1-c1ccccc1	> 10	IC50 (HEPG2TOX_HILL_SLOPE 3.71, HEPG2TOX_R_SQUARED 0.26, read-out: LUCIFERASE INFECTION ASSAY - IC50): > 10 µM
COc1ccc(CN2C(=O)N(C)C3(CCN(Cc4ccc(N(C)c5ccccc5)cc4)CC3)C2=O)cc1	3.8	IC50 (HEPG2TOX_HILL_SLOPE 3.68, HEPG2TOX_R_SQUARED 0.977, PBLUC_HILL_SLOPE 4.63, PBLUC_R_SQUARED 0.726, read-out: LUCIFERASE INFECTION ASSAY - IC50): 2.36 µM
C=CCOc1ccccc1C(=O)Nc1nc2c(s1)CN(C(=O)OC(C)(C)C)CC2	4.73	IC50 (HEPG2TOX_HILL_SLOPE 3.68, HEPG2TOX_R_SQUARED 0.942, PBLUC_HILL_SLOPE 10.6, PBLUC_R_SQUARED 0.381, read-out: LUCIFERASE INFECTION ASSAY - IC50): 3.84 µM
Cc1cccc2nc(CSC(=S)NCc3cccnc3)cn12	> 10	IC50 (HEPG2TOX_HILL_SLOPE 3.71, HEPG2TOX_R_SQUARED 0.958, PBLUC_HILL_SLOPE 13, PBLUC_R_SQUARED 0.345, read-out: LUCIFERASE INFECTION ASSAY - IC50): 9.61 µM
Cc1nnnn1/C(=C\c1cccc(F)c1)C(=O)NC(C)c1cc2ccccc2o1 (configuration not stated)	4.08	IC50 (HEPG2TOX_HILL_SLOPE 3.7, HEPG2TOX_R_SQUARED 0.887, PBLUC_HILL_SLOPE 12.4, PBLUC_R_SQUARED 0.779, read-out: LUCIFERASE INFECTION ASSAY - IC50): 3.42 µM
